# Reference: patent publication US11452725B2, “Chiral diaryl macrocycles and uses thereof” (TURNING POINT THERAPEUTICS, INC., priority 2015, dated 2022)
# Test system: CD44
# Assay: CD44 expression by immunoblotting in H2228 cells
# Type: cell-based, human
# Conditions: 48 hours treatment, 0-1000 nM
# Procedure: NSCLC cell line H2228 (harboring endogenous EML4-ALK fusion gene) was cultured in RPMI medium supplemented with 10% fetal bovine serum and 100 U/mL of penicillin/streptomycin. Ba/F3 and NIH3T3 cells stably expressing ROS1, or TRKA, or TRKB, or TRKC (WT or mutant) were cultured as mentioned above. […] Cells were collected after treatment and lysed in RIPA buffer (50 mM Tris, pH 7.4, 150 mM NaCl, 1% NP-40, 0.5% Deoxycholate, 0.1% SDS) supplemented with 10 mM EDTA, 1× Halt protease and phosphatase inhibitors (Thermo Scientific). Protein lysates (approximately 20 μg) was resolved on 4-12% Bolt Bis-Tris precasted gels with MES running buffer (Life Technologies), transferred to nitrocellulose membranes using Trans-Blot Turbo Transfer System (Bio-Rad) and detected with antibodies targeting phosphorylated phosphorylated ROS1 and total ROS1 (Cell Signaling Technology), phosphorylated TRK A/B (Cell Signaling Technology), total TRKA antibody (Santa Cruz Biotechnology), phosphorylated SRC Y416 (Cell Signaling Technology), total SRC (Cell Signaling Technology), phosphorylated FAK Y576/577 (Cell Signaling Technology), total FAK (Cell Signaling Technology), phosphorylated paxillin Y118 (Cell Signaling Technology), total paxillin (Cell Signaling Technology), phosphorylated EGFR and total EGFR, CD44, and Tubulin (Sigma). […]
structure (smiles),measurement,value
"C[C@@H](Oc1cc(-c2cnn(C3CCNCC3)c2)cnc1N)c1c(Cl)ccc(F)c1Cl [crizotinib, reference compound]",CD44 expression level,does not show down-regulation of CD44 expression
